{"source": "patent US9376425B2", "about": "“Heterocyclic compounds as MDM2 inhibitors for the treatment of cancer” (AMGEN INC., priority 2011, dated 2016)"}
{"target": "T1, human MDM2 (GST-hMDM2 1-188), interaction with biotinylated-p53 (1-83) (Homo sapiens, UniProt Q00987)", "T1 construct": "Amino acid residues 1-188 of human MDM2 were expressed; made in house; host or cells: Escherichia coli", "T1 sequence (Q00987 1-188)": "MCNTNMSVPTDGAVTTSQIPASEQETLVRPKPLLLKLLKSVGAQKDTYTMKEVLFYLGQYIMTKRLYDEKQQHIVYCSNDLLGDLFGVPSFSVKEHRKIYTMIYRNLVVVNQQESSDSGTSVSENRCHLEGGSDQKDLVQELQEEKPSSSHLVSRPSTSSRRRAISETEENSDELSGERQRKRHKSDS", "test": "improved HTRF assay (HTRF2 assay), inhibition of HDM2-p53 interaction", "format": "binding", "conditions": "0.2 nM GST-hMDM2, 0.5 nM biotinylated-p53, 100 mM KF", "method_in_brief": "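GST-hMDM2 preincubated 20 min at RT with serially diluted compound, then biotinylated p53 (1-83, E. coli) added for 60 min. Detection with SA-XLent, anti-GST cryptate and KF, equilibrated >4 h; final DMSO 2%. TR-FRET read; % inhibition calculated relative to nutlin-3.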", "units": {"IC50": "nM"}}
{"compound": "CC(C)[C@@H](CN(c1ccccc1F)S(=O)(=O)C(C)C)N1C(=O)[C@@H](CC(=O)O)O[C@H](c2cccc(Cl)c2)[C@H]1c1ccc(Cl)cc1", "note": "(single isomer, unassigned) [Example 198, 2-((2R,5R,6R)-6-(3-chlorophenyl)-5-(4-chlorophenyl)-4-((S)-1-(N-(2-fluorophenyl)propan-2-ylsulfonamido)-3-methylbutan-2-yl)-3-oxomorpholin-2-yl)acetic acid or 2-((2S,5R,6R)-6-(3-chlorophenyl)-5-(4-chlorophenyl)-4-((S)-1-(N-(2-fluorophenyl)propan-2-ylsulfonamido)-3-methylbutan-2-yl)-3-oxomorpholin-2-yl)acetic acid]", "IC50": 1}
{"compound": "CC(C)(C)S(=O)(=O)C[C@H](C1CC1)N1C(=O)[C@@H](CC(=O)O)O[C@H](c2cccc(Cl)c2)[C@H]1c1ccc(Cl)c(F)c1", "note": "(single isomer, unassigned) [Example 309, 2-((2R,5R,6R)-4-((S)-2-(tert-Butylsulfonyl)-1-cyclopropylethyl)-5-(4-chloro-3-fluorophenyl)-6-(3-chlorophenyl)-3-oxomorpholin-2-yl)acetic acid or 2-((2S,5R,6R)-4-((S)-2-(tert-butylsulfonyl)-1-cyclopropylethyl)-5-(4-chloro-3-fluorophenyl)-6-(3-chlorophenyl)-3-oxomorpholin-2-yl)acetic acid]", "IC50": 1}
{"compound": "O=C(O)C[C@H]1O[C@H](c2cccc(Cl)c2)[C@@H](c2ccc(Cl)cc2)N([C@H](CN(c2ccccc2F)S(=O)(=O)C2CC2)C2CC2)C1=O", "note": "(single isomer, unassigned) [Example 158, 2-((2R,5R,6R)-6-(3-chlorophenyl)-5-(4-chlorophenyl)-4-((S)-1-cyclopropyl-2-(N-(2-fluorophenyl)cyclopropanesulfonamido)ethyl)-3-oxomorpholin-2-yl)acetic acid or 2-((2S,5R,6R)-6-(3-chlorophenyl)-5-(4-chlorophenyl)-4-((S)-1-cyclopropyl-2-(N-(2-fluorophenyl)cyclopropanesulfonamido)ethyl)-3-oxomorpholin-2-yl)acetic acid]", "IC50": "< 1"}
{"compound": "CC[C@@H](CS(=O)(=O)C(C)(C)C)N1C(=O)[C@@H](CC(=O)O)O[C@H](c2cc(F)cc(Cl)c2)[C@H]1c1ccc(Cl)c(F)c1", "note": "(single isomer, unassigned) [Example 425, 2-((2R,5R,6R)-4-((S)-1-(tert-Butylsulfonyl)butan-2-yl)-5-(4-chloro-3-fluorophenyl)-6-(3-chloro-5-fluorophenyl)-3-oxomorpholin-2-yl)acetic acid or 2-((2S,5R,6R)-4-((S)-1-(tert-butylsulfonyl)butan-2-yl)-5-(4-chloro-3-fluorophenyl)-6-(3-chloro-5-fluorophenyl)-3-oxomorpholin-2-yl)acetic acid]", "IC50": "< 1"}
{"compound": "Cc1nnc(C[C@H]2O[C@@H](c3cccc(Cl)c3)[C@@H](c3ccc(Cl)cc3)N([C@H](CN(c3ccccc3F)S(=O)(=O)C3CC3)C3CC3)C2=O)o1", "note": "(single isomer, unassigned) [Example 404, N-((S)-2-((2S,3R,6R)-2-(3-Chlorophenyl)-3-(4-chlorophenyl)-6-((5-methyl-1,3,4-oxadiazol-2-yl)methyl)-5-oxomorpholino)-2-cyclopropylethyl)-N-(2-fluorophenyl)cyclopropanesulfonamide or N-((S)-2-((2R,3R,6R)-2-(3-chlorophenyl)-3-(4-chlorophenyl)-6-((5-methyl-1,3,4-oxadiazol-2-yl)methyl)-5-oxomorpholino)-2-cyclopropylethyl)-N-(2-fluorophenyl)cyclopropanesulfonamide]", "IC50": 134}
{"compound": "NS(=O)(=O)C[C@H]1O[C@H](c2cccc(Cl)c2)[C@@H](c2ccc(Cl)cc2)N([C@H](CN(c2ccccc2F)S(=O)(=O)C2CC2)C2CC2)C1=O", "note": "(single isomer, unassigned) [Example 410, N-((S)-2-((2R,3R,6S)-2-(3-Chlorophenyl)-3-(4-chlorophenyl)-5-oxo-6-(sulfamoylmethyl)morpholino)-2-cyclopropylethyl)-N-(2-fluorophenyl)cyclopropanesulfonamide or N-((S)-2-((2S,3R,6S)-2-(3-chlorophenyl)-3-(4-chlorophenyl)-5-oxo-6-(sulfamoylmethyl)morpholino)-2-cyclopropylethyl)-N-(2-fluorophenyl)cyclopropanesulfonamide]", "IC50": "< 1"}
{"compound": "CC[C@@H](CS(=O)(=O)c1ccccc1Cl)N1C(=O)[C@@H](CC(=O)O)O[C@H](c2cccc(Cl)c2)[C@H]1c1ccc(Cl)cc1", "note": "(single isomer, unassigned) [Example 138, 2-((2R,5R,6R)-6-(3-chlorophenyl)-5-(4-chlorophenyl)-4-((S)-1-((2-chlorophenyl)sulfonyl)butan-2-yl)-3-oxomorpholin-2-yl)acetic acid or 2-((2S,5R,6R)-6-(3-chlorophenyl)-5-(4-chlorophenyl)-4-((S)-1-((2-chlorophenyl)sulfonyl)butan-2-yl)-3-oxomorpholin-2-yl)acetic acid]", "IC50": 29}
{"compound": "2-((2R,5R,6R)-6-(3-chlorophenyl)-5-(4-chlorophenyl)-4-((S)-1-(N-(2-cyanophenyl)cyclopropanesulfonamido)butan-2-yl)-3-oxomorpholin-2-yl)acetic acid or 2-((2S,5R,6R)-6-(3-chlorophenyl)-5-(4-chlorophenyl)-4-((S)-1-(N-(2-cyanophenyl)cyclopropanesulfonamido)butan-2-yl)-3-oxomorpholin-2-yl)acetic acid [Example 206]", "IC50": 145}
{"compound": "CC[C@@H](CN(c1ccccc1F)S(=O)(=O)C1CC1)N1C(=O)[C@@H](CC(N)=O)O[C@H](c2cccc(Cl)c2)[C@H]1c1ccc(Cl)cc1", "note": "(single isomer, unassigned) [Example 242, 2-((2R,5R,6R)-6-(3-chlorophenyl)-5-(4-chlorophenyl)-4-((S)-1-(N-(2-fluorophenyl)cyclopropanesulfonamido)butan-2-yl)-3-oxomorpholin-2-yl)acetamide or 2-((2S,5R,6R)-6-(3-chlorophenyl)-5-(4-chlorophenyl)-4-((S)-1-(N-(2-fluorophenyl)cyclopropanesulfonamido)butan-2-yl)-3-oxomorpholin-2-yl)acetamide]", "IC50": 2}
{"compound": "CC(C)(O)CS(=O)(=O)C[C@H](C1CC1)N1C(=O)[C@@H](CC(=O)O)O[C@H](c2cccc(Cl)c2)[C@H]1c1ccc(Cl)cc1", "note": "(single isomer, unassigned) [Example 288, 2-((2R,5R,6R)-6-(3-Chlorophenyl)-5-(4-chlorophenyl)-4-((S)-1-cyclopropyl-2-((2-hydroxy-2-methylpropyl)sulfonyl)ethyl)-3-oxomorpholin-2-yl)acetic acid or 2-((2S,5R,6R)-6-(3-chlorophenyl)-5-(4-chlorophenyl)-4-((S)-1-cyclopropyl-2-((2-hydroxy-2-methylpropyl)sulfonyl)ethyl)-3-oxomorpholin-2-yl)acetic acid]", "IC50": "< 1"}
{"compound": "CC(C)(C)S(=O)(=O)C[C@H](C1CC1)N1C(=O)[C@@H](CC(=O)O)O[C@H](c2ccc(Cl)c(Cl)c2)[C@H]1c1ccc(Cl)cc1", "note": "(single isomer, unassigned) [Example 318, 2-((2R,5R,6R)-4-((S)-2-(tert-Butylsulfonyl)-1-cyclopropylethyl)-5-(4-chlorophenyl)-6-(3,4-dichlorophenyl)-3-oxomorpholin-2-yl)acetic acid or 2-((2S,5R,6R)-4-((S)-2-(tert-butylsulfonyl)-1-cyclopropylethyl)-5-(4-chlorophenyl)-6-(3,4-dichlorophenyl)-3-oxomorpholin-2-yl)acetic acid]", "IC50": 8}
